Consider 13 compounds from PubChem BioAssay (NCI).

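In this assay, cells in 96-well plates receive the compound at five concentrations for 48 hours. Endpoints are linearly interpolated between the surrounding concentrations. GI50: concentration for 50% inhibition of growth. TGI denotes the concentration required for complete inhibition of growth.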 A value given as a limit tells only on which side of the number the result lay.

Some test systems named below: CAKI-1 renal; EKVX NSCLC; LOX IMVI melanoma; NCI-H226 lung; NCI-H460 lung; OVCAR-3 ovarian; SK-OV-3 ovarian; SNB-75 CNS; HL-60(TB) leukemia; HS 578T breast.
What all share (assay): NCI anticancer screen, dose series, 48 h

Consider `CCC[CH2][Sn]([CH2]CCC)([CH2]CCC)[O]C(=O)C(OC(C)=O)c1ccccc1` (centres undefined), for which the GI50 with CAKI-1 renal was 0.159 µM; in the test with EKVX NSCLC, 0.0528 µM; in the test on LOX IMVI melanoma, 0.107 µM; in the test with NCI-H226 lung it was 0.178 µM; in the test on NCI-H460 lung it was 0.138 µM; in the test on OVCAR-3 ovarian, 0.137 µM. Besides, the figures for the GI50 with SK-OV-3 ovarian and in the test with SNB-75 CNS were 0.12 µM and 0.134 µM, respectively. Besides, the TGI in the test on CAKI-1 renal is 0.3 µM; with EKVX NSCLC, 0.21 µM; in the test on LOX IMVI melanoma it was 0.23 µM; with NCI-H226 lung it was 0.336 µM; in the test on NCI-H460 lung it was 0.28 µM; with OVCAR-3 ovarian, 0.274 µM. Also, the TGI turned out to be 0.273 µM in the test with SK-OV-3 ovarian and 0.424 µM in the test with SNB-75 CNS.
As to `O=C1C=CC(=O)C2C1Cc1ccccc1C2c1ccccc1` (centres undefined), the TGI in the test on CAKI-1 renal is above 100 µM; with EKVX NSCLC, 72.9 µM; in the test with HL-60(TB) leukemia it was 53.1 µM; in the test with LOX IMVI melanoma, above 100 µM; with NCI-H226 lung, above 100 µM; in the test with NCI-H460 lung, 81.4 µM. For the same compound, the results for the TGI in the test on OVCAR-3 ovarian, in the test with SK-OV-3 ovarian and in the test on SNB-75 CNS were 88.3 µM, above 100 µM and above 100 µM, respectively.
Turning to `O=C(Nc1cc(Cl)ccc1Cl)c1cc2cccc(Br)c2oc1=O`, the TGI with EKVX NSCLC, with HL-60(TB) leukemia, in the test with LOX IMVI melanoma, in the test with NCI-H226 lung, in the test with NCI-H460 lung and in the test with OVCAR-3 ovarian was above 100 µM in each case. Moreover, the TGI in the test with SK-OV-3 ovarian and in the test with SNB-75 CNS was above 100 µM throughout.
As for `S=c1nc(C(c2ccccc2)c2ccccc2)[nH][nH]1`, the TGI in the test on EKVX NSCLC, in the test on HL-60(TB) leukemia, with LOX IMVI melanoma, in the test with NCI-H226 lung, in the test on NCI-H460 lung and in the test with OVCAR-3 ovarian was above 100 µM throughout. For the same compound, the TGI in the test on SK-OV-3 ovarian is above 100 µM.
As for `CCO/C(CCn1[nH]c(=O)c(Cl)c(Cl)c1=O)=N\NC(=O)C(=O)NN`, the TGI with CAKI-1 renal, in the test on EKVX NSCLC, with HL-60(TB) leukemia, in the test with LOX IMVI melanoma, with NCI-H226 lung and in the test on NCI-H460 lung was above 100 µM throughout. Moreover, the TGI in the test on OVCAR-3 ovarian, in the test with SK-OV-3 ovarian and in the test on SNB-75 CNS was above 100 µM throughout.
As for `COc1ccc2c3c(c(C(=O)O)oc13)CCC2`, the TGI is above 100 µM with EKVX NSCLC; above 100 µM in the test on HL-60(TB) leukemia; above 100 µM in the test with LOX IMVI melanoma; 83 µM with NCI-H226 lung; above 100 µM in the test with NCI-H460 lung; above 100 µM with OVCAR-3 ovarian. Moreover, the TGI in the test with SK-OV-3 ovarian and in the test on SNB-75 CNS was above 100 µM in each case.
With `O=c1/c(=C/c2c(O)ccc3ccccc23)sc2nc3ccccc3n12`, the TGI in the test with CAKI-1 renal, in the test on EKVX NSCLC, with HL-60(TB) leukemia, with LOX IMVI melanoma, in the test on NCI-H226 lung and with NCI-H460 lung was above 100 µM each time. Further, the TGI in the test on OVCAR-3 ovarian, in the test on SK-OV-3 ovarian and in the test with SNB-75 CNS was above 100 µM in each case.
As for `Cc1ccc2[nH]c3c(c2c1)N=c1ccccc1=NO3`, the GI50 is 10.5 µM with CAKI-1 renal; 26.2 µM in the test on EKVX NSCLC; above 100 µM with HL-60(TB) leukemia; 97.8 µM in the test with LOX IMVI melanoma; 70 µM with NCI-H226 lung; 45.9 µM in the test with NCI-H460 lung. Further, the GI50 was 25.8 µM in the test with OVCAR-3 ovarian, 29.9 µM in the test on SK-OV-3 ovarian and 25.4 µM in the test on SNB-75 CNS. Moreover, the TGI with CAKI-1 renal is 47.6 µM; with EKVX NSCLC, above 100 µM; in the test with HL-60(TB) leukemia, above 100 µM; in the test with LOX IMVI melanoma, above 100 µM; in the test with NCI-H226 lung, above 100 µM; in the test with NCI-H460 lung it was above 100 µM. Also, the TGI in the test on OVCAR-3 ovarian, with SK-OV-3 ovarian and with SNB-75 CNS was above 100 µM each time.
Consider `CC(C)(CN1CCOCC1)C(=O)/C=C/c1ccc(/C=C/C(=O)C(C)(C)CN2CCOCC2)cc1`, for which the TGI in the test with CAKI-1 renal turned out to be 3.78 µM; in the test on EKVX NSCLC, 4.12 µM; in the test with HL-60(TB) leukemia it was 3.92 µM; in the test on LOX IMVI melanoma, 1.54 µM; with NCI-H226 lung, 5.22 µM; in the test on NCI-H460 lung, 19.4 µM. For the same compound, the values for the TGI in the test with OVCAR-3 ovarian, with SK-OV-3 ovarian and with SNB-75 CNS were 2.46 µM, 39.8 µM and 4.44 µM, respectively.
As to `Cc1cc(C)nc(NS(=O)(=O)c2ccc(Nc3c4ccccc4nc4c(C(=O)Nc5ccc(S(=O)(=O)Nc6cc(C)on6)cc5)ccc(Cl)c34)cc2)n1`, the TGI in the test on EKVX NSCLC is 62.5 µM; in the test with LOX IMVI melanoma, above 100 µM; with NCI-H460 lung it was 61.3 µM; in the test with OVCAR-3 ovarian, 31.3 µM; in the test with SK-OV-3 ovarian, above 100 µM; in the test on SNB-75 CNS, 84.1 µM.
In the case of `O=c1nc(NC(c2ccccc2)(c2ccccc2)c2ccccc2)ccn1CCCl`, the TGI in the test with EKVX NSCLC amounted to 61 µM; in the test on HL-60(TB) leukemia, 54.9 µM; with LOX IMVI melanoma, 31.8 µM; with NCI-H226 lung, 42.8 µM; in the test with NCI-H460 lung, 36.4 µM; in the test on OVCAR-3 ovarian, 27.6 µM. The compound further yielded a TGI in the test with SNB-75 CNS of 41.8 µM.
Consider `O=C1OC(c2ccccc2)(c2ccccc2)c2ccc3ccc(F)cc3c21`, for which the TGI in the test with CAKI-1 renal, in the test on EKVX NSCLC, in the test on HL-60(TB) leukemia, in the test with LOX IMVI melanoma, in the test with NCI-H226 lung and in the test on NCI-H460 lung was above 100 µM throughout. For the same compound, the TGI with OVCAR-3 ovarian, in the test on SK-OV-3 ovarian and with SNB-75 CNS was above 100 µM in each case.
Regarding `C[C@]12CC[C@@H]3c4ccc(O)cc4CC[C@H]3[C@@H]1CC[C@@H]2NS(=O)(=O)c1cccc(Cl)c1`, the GI50 with CAKI-1 renal is 2.97 µM; in the test on HS 578T breast, 3.09 µM; in the test on LOX IMVI melanoma it was 1.75 µM; in the test with NCI-H226 lung, 1.9 µM; in the test with NCI-H460 lung, 2.24 µM; in the test with SK-OV-3 ovarian, 3.79 µM. Besides, the GI50 with SNB-75 CNS is 2.25 µM. In addition, the TGI with CAKI-1 renal stood at 10.6 µM; in the test with HS 578T breast it was 13.1 µM; in the test on LOX IMVI melanoma, 3.4 µM; in the test on NCI-H226 lung, 4.61 µM; with NCI-H460 lung, 5.02 µM; in the test on SK-OV-3 ovarian, 12.6 µM. This compound yielded a TGI in the test with SNB-75 CNS of 9.01 µM.
